Patent US11072575B1, “Method of preparing a cinnamyl alcohol retinoic acid ester with antioxidant and antibacterial activities” (priority 2020, dated 2021)

Experiments:
[1] = system: Multi-resistant Pseudomonas aeruginosa 18-202; assay: Paper diffusion drug sensitivity test, multi-resistant Pseudomonas aeruginosa 18-202; settings: for Zone of inhibition: drug sensitive paper 6.35 mm, test drugs 30 μg/tablet, 37° C. 24 h; for Antibacterial effect (in words): summary of Table 4
[2] = system: Multi-resistant Staphylococcus aureus 18-596; assay: Paper diffusion drug sensitivity test, multi-resistant Staphylococcus aureus 18-596; settings: for Zone of inhibition: drug sensitive paper 6.35 mm, test drugs 30 μg/tablet, 37° C. 24 h; for Antibacterial effect (in words): summary of Table 4
[3] = DPPH radical scavenging activity assay; settings: for DPPH clearance rate: 30 min, 517 nm, n = 3
Text: In the DPPH molecule, due to the presence of multiple electron-withdrawing —NO2 and large π bonds of the benzene ring, nitrogen free radical is stabilized. Its methanol solution is purple and has a maximum absorption peak at 517 nm. After the addition of an antioxidant, DPPH captures an electron to be paired with the free electron, and the purple fades and turns into a yellow substance. The absorption at 517 nm disappears, and the degree of fading is quantitatively related to the number of electrons it captures. Based on this principle, a spectrophotometer is used to detect the change of the absorbance of the DPPH radical and the sample solution, and the ability of the sample to provide hydrogen atoms and scavenge free radicals can be measured. […] Vc (positive control), cinnamyl alcohol retinoic acid ester (sample), cinnamyl alcohol (control) and retinoic acid (control). The sample solution was subjected to gradient dilution with toluene, and three sets of controls were separately dissolved in a test tube with a certain amount of toluene to prepare the same concentration gradient as the sample. [table] […] Clearance calculation: Clearance Rate (%)=[1−(Ai−Aj)/Ao]*100%

| Molecule | Zone of inhibition [1] | Zone of inhibition [2] | Antibacterial effect (in words) [1] | Antibacterial effect (in words) [2] | DPPH clearance rate ([3]; 1.76 ppm in toluene) | DPPH clearance rate ([3]; 8.80 ppm in toluene) | DPPH clearance rate ([3]; 21.12 ppm in toluene) | DPPH clearance rate ([3]; 42.24 ppm in toluene) | DPPH clearance rate ([3]; 79.20 ppm in toluene) | DPPH clearance rate ([3]; 112.64 ppm in toluene) | DPPH clearance rate ([3]; 281.60 ppm in toluene) | DPPH clearance rate ([3]; 492.80 ppm in toluene) | DPPH clearance rate ([3]; 792.00 ppm in toluene) | DPPH clearance rate ([3]; 915.20 ppm in toluene) | Antioxidant activity (in words) ([3]; summary) |
| --- | --- | --- | --- | --- | --- | --- | --- | --- | --- | --- | --- | --- | --- | --- | --- |
| CN[C@H](CC(C)C)C(=O)N[C@H]1C(=O)N[C@@H](CC(N)=O)C(=O)N[C@H]2C(=O)N[C@H]3C(=O)N[C@H](C(=O)N[C@H](C(=O)O)c4cc(O)cc(O)c4-c4cc3ccc4O)[C@H](O)c3ccc(c(Cl)c3)Oc3cc2cc(c3O[C@@H]2O[C@H](CO)[C@@H](O)[C@H](O)[C@H]2O[C@H]2C[C@](C)(N)[C@H](O)[C@H](C)O2)Oc2ccc(cc2Cl)[C@H]1O [Vancomycin] | 9 mm | 21 mm |  |  |  |  |  |  |  |  |  |  |  |  |  |
| Gentamicin | 21 mm | 10 mm |  |  |  |  |  |  |  |  |  |  |  |  |  |
| CC1=C(/C=C/C(C)=C/C=C/C(C)=C/C(=O)O)C(C)(C)CCC1 [Retinoic acid, retinoic acid] | 7 mm | 8 mm |  |  |  |  |  |  |  |  |  |  |  |  |  |
| OCC=Cc1ccccc1 [Cinnamyl alcohol, cinnamyl alcohol] | 6 mm | 14 mm | little inhibitory effect | little inhibitory effect | 6.89% | 7.95% | 17.86% | 25.71% | 37.96% | 44.56% | 59.23% | 64.94% | 73.54% | 75.82% |  |
| O=C1O[C@H]([C@@H](O)CO)C(O)=C1O [Vc] |  |  |  |  | 23.16% | 33.47% | 79.63% | 89.55% | 97.42% | 97.53% | 98.29% | 99.06% | 99.10% | 99.28% |  |
| CC1=C(/C=C/C(C)=C/C=C/C(C)=C/C(=O)OC/C=C/c2ccccc2)C(C)(C)CCC1 [Cinnamyl alcohol retinoic acid ester, (2E,4E,6E,8E)-cinnamyl 3,7-dimethyl-9-(2,6,6-trimethylcyclohex-1-en-1-yl)nona-2,4,6,8-tetraenoate] | 21 mm | 20 mm | strong resistance | strong resistance | 13.16% | 17.53% | 31.95% | 42.08% | 68.62% | 75.46% | 79.44% | 83.15% | 90.77% | 95.43% | excellent antioxidant activity |
